This experiment deals with T1, human IL-17AA (Homo sapiens, UniProt Q16552).
T1 construct: host or cells: HEK (human embryonic kidney) cells
T1 sequence (Q16552 24-155): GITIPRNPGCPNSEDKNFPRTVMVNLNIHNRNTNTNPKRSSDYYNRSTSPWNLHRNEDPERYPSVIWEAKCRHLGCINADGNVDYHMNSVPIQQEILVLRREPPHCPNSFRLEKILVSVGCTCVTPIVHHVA
The experiment is described as follows: IL-8 release assay in human epithelial keratinocytes adult (HEKa). The class given is cell-based. The settings on record: HEKa cells, 3 ng/mL HEK-human IL-17AA + 10 ng/mL human TNFalpha; read-out: Rel EC50 IL-8 release assay. A digest of the protocol: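 IL-8 release, quantified by HTRF and normalized to controls, reports IL-17 signaling in HEKa cells treated with compound plus final 3 ng/mL IL-17AA (HEK-derived) and 10 ng/mL TNF-alpha for 68-72 h; TNF-alpha-only wells set 100% inhibition. Four-parameter logistic fits (r^2>0.9) give relative IC50 and Emax; PrestoBlue flags cytotoxicity.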

In general, EC50 refers to the concentration that produces a half-maximal response. For the molecule `Cc1n[nH]c(C)c1-c1ccc(NC(=O)[C@@H](NC(=O)c2ccnn2C(C)C)[C@H]2CCOc3c(F)cccc32)cc1` [Example 287, N-[(1S)-2-[4-(3,5-dimethyl-1H-pyrazol-4-yl)anilino]-1-[(4S)-8-fluorochroman-4-yl]-2-oxo-ethyl]-2-isopropyl-pyrazole-3-carboxamide], the half-maximal effective concentration (EC50) is < 100 nM.

Consider `Cc1n[nH]c(C)c1-c1ccc(NC(=O)[C@@H](NC(=O)c2ccnn2C(C)C)[C@H]2CCOc3cc(F)ccc32)cc1` [Example 288, N-[(1S)-2-[4-(3,5-dimethyl-1H-pyrazol-4-yl)anilino]-1-[(4S)-7-fluorochroman-4-yl]-2-oxo-ethyl]-2-isopropyl-pyrazole-3-carboxamide], for which the EC50 was < 100 nM.

Turning to `Cc1n[nH]c(C)c1-c1ccc(NC(=O)[C@@H](NC(=O)c2ccnn2C(C)C)[C@H]2CCOc3ccc(F)cc32)cc1` [Example 289, N-[(1S)-2-[4-(3,5-dimethyl-1H-pyrazol-4-N yl)anilino]-1-[(4S)-6-fluorochroman-4-yl]-2-oxo-ethyl]-2-isopropyl-pyrazole-3-carboxamide], the 50% effective concentration (EC50) is < 100 nM.

As for `CCc1nocc1C(=O)N[C@H](C(=O)Nc1ccc(-c2c(C)n[nH]c2C)cc1)C(C1CC1)C1CC1` [Example 290, N-[(1S)-1-(dicyclopropylmethyl)-2-[4-(3,5-dimethyl-1H-pyrazol-4-yl)anilino]-2-oxo-ethyl]-3-ethyl-isoxazole-4-carboxamide], the EC50 is < 100 nM.

In the case of `Cc1n[nH]c(C)c1-c1ccc(NC(=O)[C@@H](NC(=O)c2conc2C(C)C)C(C2CC2)C2CC2)cc1` [Example 291, N-[(1S)-1-(dicyclopropylmethyl)-2-[4-(3,5-dimethyl-1H-pyrazol-4-yl)anilino]-2-oxo-ethyl]-3-isopropyl-isoxazole-4-carboxamide], the EC50 is < 100 nM.

On to `Cc1n[nH]c(C)c1-c1ccc(NC(=O)[C@@H](NC(=O)c2cnnn2C(C)C)C(C2CC2)C2CC2)cc1` [Example 292, N-[(1S)-1-(dicyclopropylmethyl)-2-[4-(3,5-dimethyl-1H-pyrazol-4-yl)anilino]-2-oxo-ethyl]-3-isopropyl-triazole-4-carboxamide], for which the EC50 is < 100 nM.

In the case of `Cc1n[nH]c(C)c1-c1ccc(NC(=O)[C@@H](NC(=O)c2cnc3ccccn23)C2CCCCC2)cc1` [Example 293, N-[(1S)-1-cyclohexyl-2-[4-(3,5-dimethyl-1H-pyrazol-4-yl)anilino]-2-oxo-ethyl]imidazo[1,2-a]pyridine-3-carboxamide], the EC50 is 100 to 1000 nM.

As for `Cc1n[nH]c(C)c1-c1ccc(NC(=O)C(NC(=O)c2ccnn2C(C)C)C(C2CC(F)(F)C2)C2CC(F)(F)C2)cc1` (stereo not shown) [Example 295, N-[1-[bis(3,3-difluorocyclobutyl)methyl]-2-[4-(3,5-dimethyl-1H-pyrazol-4-yl)anilino]-2-oxo-ethyl]-2-isopropyl-pyrazole-3-carboxamide], the half-maximal effective concentration (EC50) was 100 to 1000 nM.

On to `Cc1n[nH]c(C)c1-c1ccc(NC(=O)[C@@H](Cc2ccccc2)NC(=O)c2ccnn2C)cc1` [Example 297, N-[(1R)-1-benzyl-2-[4-(3,5-dimethyl-1H-pyrazol-4-yl)anilino]-2-oxo-ethyl]-2-methyl-pyrazole-3-carboxamide], for which the EC50 was > 1000 nM.

Turning to `Cc1n[nH]c(C)c1-c1ccc(NC(=O)[C@H](CC(C)C)NC(=O)c2ccnn2C)cc1` [Example 298], the EC50 was > 1000 nM.

Take `Cn1cncc1-c1ccc(NC(=O)[C@H](Cc2cc(C#N)ccc2Cl)NC(=O)OC(C)(C)C)cc1` [Example 307, tert-butyl N-[(1S)-1-[(2-chloro-5-cyano-phenyl)methyl]-2-[4-(3-methylimidazol-4-yl)anilino]-2-oxo-ethyl]carbamate]: the EC50 was > 1000 nM.

`Cc1ncn(C)c1-c1ccc(NC(=O)C(NC(=O)c2ccnn2C)C(C2CC2)C2CC2)cc1` (stereo not shown) [Example 332, N-[1-(dicyclopropylmethyl)-2-[4-(3,5-dimethylimidazol-4-yl)anilino]-2-oxo-ethyl]-2-methyl-pyrazole-3-carboxamide]: the EC50 was 100 to 1000 nM.

Consider `Cc1ncn(C)c1-c1ccc(NC(=O)[C@@H](NC(=O)c2ccnn2C)C2CCCC2)cc1` [Example 335, N-[(1S)-1-cyclopentyl-2-[4-(3,5-dimethylimidazol-4-yl)anilino]-2-oxo-ethyl]-2-methyl-pyrazole-3-carboxamide], for which the EC50 is > 1000 nM.

Consider `Cc1ncn(C)c1-c1ccc(NC(=O)[C@@H](NC(=O)c2ccnn2C)C2CCCCCC2)cc1` [Example 336, N-[(1S)-1-cycloheptyl-2-[4-(3,5-dimethylimidazol-4-yl)anilino]-2-oxo-ethyl]-2-methyl-pyrazole-3-carboxamide], for which the EC50 lay within 100 to 1000 nM.

For the molecule `Cc1ncn(C)c1-c1ccc(NC(=O)[C@@H](NC(=O)c2ccnn2C)C2CCCCC2)cc1` [Example 337, N-[(1S)-1-cyclohexyl-2-[4-(3,5-dimethylimidazol-4-yl)anilino]-2-oxo-ethyl]-2-methyl-pyrazole-3-carboxamide], the EC50 is 100 to 1000 nM.

`Cc1ncn(C)c1-c1ccc(NC(=O)[C@@H](NC(=O)c2ccnn2C)C(c2ccccc2)c2ccccc2)cc1` [Example 338, N-[(1S)-1-benzhydryl-2-[4-(3,5-dimethylimidazol-4-yl)anilino]-2-oxo-ethyl]-2-methyl-pyrazole-3-carboxamide]: the EC50 lay in the range of 100 to 1000 nM.

Take `Cn1cncc1-c1ccc(NC(=O)[C@@H](NC(=O)c2ccnn2C)[C@@H]2CCc3ccc(Br)cc32)cc1` [Example 340, N-[(1S)-1-[(1R)-6-bromoindan-1-yl]-2-[4-(3-methylimidazol-4-yl)anilino]-2-oxo-ethyl]-2-methyl-pyrazole-3-carboxamide]: the EC50 is > 1000 nM.

Turning to `Cn1cncc1-c1ccc(NC(=O)[C@@H](NC(=O)c2ccnn2C)[C@H]2CCc3ccc(Br)cc32)cc1` [Example 341, N-[(1S)-1-[(1S)-6-bromoindan-1-yl]-2-[4-(3-methylimidazol-4-yl)anilino]-2-oxo-ethyl]-2-methyl-pyrazole-3-carboxamide], the EC50 was in the range of 100 to 1000 nM.

Regarding `Cn1cncc1-c1ccc(NC(=O)[C@H](Cc2cc(C#N)ccc2Cl)NC(=O)c2ccnn2C)cc1` [Example 342, N-[(1S)-1-[(2-chloro-5-cyano-phenyl)methyl]-2-[4-(3-methylimidazol-4-yl)anilino]-2-oxo-ethyl]-2-methyl-pyrazole-3-carboxamide], the concentration giving a half-maximal response (EC50) was > 1000 nM.

In the case of `Cn1cncc1-c1ccc(NC(=O)[C@@H](NC(=O)c2ccnn2C)C2CCCCC2)cc1` [Example 343, N-[(1S)-1-cyclohexyl-2-[4-(3-methylimidazol-4-yl)anilino]-2-oxo-ethyl]-2-methyl-pyrazole-3-carboxamide], the EC50 was > 1000 nM.

Regarding `Cn1cncc1-c1ccc(NC(=O)[C@@H](NC(=O)c2ccnn2C)[C@@H]2CCCc3ccc(Br)cc32)cc1` [Example 344, N-[(1S)-1-[(1R)-7-bromotetralin-1-yl]-2-[4-(3-methylimidazol-4-yl)anilino]-2-oxo-ethyl]-2-methyl-pyrazole-3-carboxamide], the EC50 is > 1000 nM.

With `Cn1cncc1-c1ccc(NC(=O)[C@H](Cc2cc(Br)ccc2Cl)NC(=O)c2ccnn2C)cc1` [Example 345, N-[(1S)-1-[(5-bromo-2-chloro-phenyl)methyl]-2-[4-(3-methylimidazol-4-yl)anilino]-2-oxo-ethyl]-2-methyl-pyrazole-3-carboxamide], the EC50 lay in the range of 100 to 1000 nM.
